Publication PMC11001641, “Iron–sulfur cluster assembly scaffold protein IscU is required for activation of ferric uptake regulator (Fur) in Escherichiacoli” (The Journal of Biological Chemistry, 2024)

How the values were obtained:
[1] = molecular target: T1, E. coli FhuF (Escherichia coli, UniProt P39405); assay: UV-Vis absorption of purified protein; type: binding; details: pH 8.0; 500 mM NaCl; protein from wild-type E. coli grown in M9 with 2 uM iron; bound during expression
T1 construct: his-tagged, expressed from pBAD in E. coli MC4100

[2] = molecular target: T2, E. coli ferredoxin (Fdx) (Escherichia coli, UniProt P0A9R4); assay: UV-Vis absorption of purified protein; type: binding; details: pH 8.0; 500 mM NaCl; protein from wild-type E. coli grown in M9 with 2 uM iron; bound during expression
T2 construct: his-tagged, expressed from pBAD in E. coli MC4100; isc operon ferredoxin
T2 sequence (P0A9R4 2-111): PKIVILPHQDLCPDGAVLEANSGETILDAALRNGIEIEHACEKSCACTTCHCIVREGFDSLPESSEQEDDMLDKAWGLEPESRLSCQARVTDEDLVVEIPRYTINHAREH

T1 sequence (P39405 whole entry): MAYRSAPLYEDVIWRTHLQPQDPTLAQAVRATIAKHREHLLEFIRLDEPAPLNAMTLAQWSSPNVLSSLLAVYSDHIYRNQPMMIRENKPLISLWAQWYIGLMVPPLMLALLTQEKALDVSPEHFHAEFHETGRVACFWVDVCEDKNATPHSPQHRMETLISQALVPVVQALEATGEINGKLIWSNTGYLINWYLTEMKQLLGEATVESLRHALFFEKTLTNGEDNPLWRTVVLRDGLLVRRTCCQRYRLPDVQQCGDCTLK

[S]1[Fe][S][Fe]1 [[2Fe-2S] cluster]
UV-Vis absorption of purified protein [1]: [2Fe-2S] cluster assembly in the E. coli siderophore-reductase FhuF | UV-Vis absorption of purified protein [2]: the E. coli ferredoxin, a [2Fe-2S] cluster-containing protein
